SMILES strings stand for the structures.

The first assay has as its system cultured human mast cells (CHMC). The experiment in a line: CHMC low cell density IgE activation: tryptase and LTC4 assays. The class given is cell-based. Particulars: Homo sapiens, Mast cell, Low Density CHMC, anti-IgE activation, tryptase readout; read-out: CHMC anti-IgE Tryptase. The procedure: Pellet CHMC cells (980 rpm, 10 min) and resuspend in pre-warmed MT. Add 65 ul of cells to each 96-well plate. Depending on the degranulation activity for each particular CHMC donor, load 1000-1500 cells/well. Mix four times followed by a 1 hr incubation at 37° C. […] Stimulate cells by adding 25 ul of 6× anti-IgE solution to the appropriate plates. Add 25 ul MT to un-stimulated control wells. Mix twice following addition of the anti-IgE. Incubate at 37° C. for 30 minutes. […] Spin plates at 1000 rpm for 10 min to pellet cells. Transfer 25 ul of supernatant to a 96-well black bottom plate and add 100 ul of freshly diluted tryptase substrate solution to each well. Incubate plates at room temperature for 30 min.
Leukotriene C4 (LTC4) is also quantified using an ELISA kit on appropriately diluted supernatant samples (determined empirically for each donor cell population so that the sample measurement falls within the standard curve) following the supplier's instructions.
For the compound `Cc1ccc(N)cc1Nc1ncc(F)c(Nc2cc(N)ccc2C)n1` [Compound R950157, N2,N4-Bis(5-amino-2-methylphenyl)-5-fluoro-2,4-pyrimidinediamine], the IC50 is over 10 µM.
Same read-out and setting: with `Nc1ccc(F)c(Nc2ncc(F)c(Nc3cc(N)ccc3F)n2)c1` [Compound R950158, N2,N4-Bis(5-amino-2-fluorophenyl)-5-fluoro-2,4-pyrimidinediamine] the figure was 9.98 µM.
Still for that read-out and setting: with `CC(=O)c1cccc(Nc2ncc(F)c(Nc3cccc(C(C)=O)c3)n2)c1` [Compound R950376, N2,N4-Bis(3-methylcarbonylphenyl)-5-fluoro-2,4-pyrimidinediamine] the figure was 2.54 µM.

The same assay, now with this note: Homo sapiens, Mast cell, read-out: CHMC anti-IgE Tryptase.
For `Cc1ccc(Nc2ncc(F)c(Nc3ccc(C)c([N+](=O)[O-])c3)n2)cc1[N+](=O)[O-]` [Compound R950144, N2,N4-Bis(4-methyl-3-nitrophenyl)-5-fluoro-2,4-pyrimidinediamine], the IC50 was 10 µM.
The same measure, in the same setting: the same measure for `Cc1ccc([N+](=O)[O-])cc1Nc1ncc(F)c(Nc2cc([N+](=O)[O-])ccc2C)n1` [Compound R950146, N2,N4-Bis(2-methyl-5-nitrophenyl)-5-fluoro-2,4-pyrimidinediamine]: over 10 µM.
Consider `O=[N+]([O-])c1ccc(F)c(Nc2ncc(F)c(Nc3cc([N+](=O)[O-])ccc3F)n2)c1` [Compound R950147, N2,N4-Bis(2-fluoro-5-nitrophenyl)-5-fluoro-2,4-pyrimidinediamine], for which the IC50 was over 10 µM.
The same measure, in the same setting: with `COc1ccc([N+](=O)[O-])cc1Nc1ncc(F)c(Nc2cc([N+](=O)[O-])ccc2OC)n1` [Compound R950151, N2,N4-Bis(2-methoxy-5-nitrophenyl)-5-fluoro-2,4-pyrimidinediamine] the figure was over 10 µM.
Same read-out and setting: with `O=[N+]([O-])c1cc(Nc2ccnc(Nc3ccc(F)c([N+](=O)[O-])c3)n2)ccc1F` [Compound R950152, N2,N4-Bis(4-fluoro-3-nitrophenyl)-2,4-pyrimidinediamine] the figure was 10 µM; with `Cc1ccc(Nc2ccnc(Nc3ccc(C)c([N+](=O)[O-])c3)n2)cc1[N+](=O)[O-]` [Compound R950153, N2,N4-Bis(4-methyl-3-nitrophenyl)-2,4-pyrimidinediamine], over 10 µM.
The same measure, in the same setting: with `O=[N+]([O-])c1ccc(O)c(Nc2ccnc(Nc3cc([N+](=O)[O-])ccc3O)n2)c1` [Compound R950155, N2,N4-Bis(2-hydroxy-5-nitrophenyl)-2,4-pyrimidinediamine] the figure was over 10 µM.

Still in this assay, the particulars now being: Low Density CHMC, anti-IgE activation, tryptase readout; read-out: CHMC anti-IgE Tryptase.
Turning to `CCOC(=O)CNc1cccc(Nc2ncc(F)c(Nc3cccc(O)c3)n2)c1` [Compound R950216], the IC50 is 0.327 µM.

A further assay shares this test system. Description: CHMC low cell density ionomycin activation: tryptase assay. In kind it is cell-based. Conditions: Homo sapiens, Mast cell, Low Density CHMC, ionomycin activation, tryptase readout; read-out: CHMC Ionomycin Tryptase.
On to `CCOc1ccc(Nc2ncc(F)c(Nc3ccc(OCC)cc3)n2)cc1` [Compound R070790, N2,N4-bis(4-ethoxyphenyl)-5-fluoro-2,4-pyrimidinediamine], for which the IC50 was over 10 µM.
Regarding `COC(=O)c1cc2cc(Nc3ncc(F)c(Nc4ccc(OC)c(Cl)c4)n3)ccc2o1` [Compound R926950, N4-(3-Chloro-4-methoxyphenyl)-5-fluoro-N2-[2-(methoxycarbonyl)benzofuran-5-yl]-2,4-pyrimidinediamine], the IC50 was over 10 µM.
Same read-out and setting: the same measure for `OCCOc1ccc(Nc2ncc(F)c(Nc3cccc(O)c3)n2)cc1` [Compound R935155, 5-Fluoro-N2-[4-(2-hydroxyethoxy)phenyl]-N4-(3-hydroxyphenyl)-2,4-pyrimidinediamine]: over 10 µM.

The assay is the same for the next values; noted with them: Low Density CHMC, ionomycin activation, tryptase readout; read-out: CHMC Ionomycin Tryptase.
Regarding `CNC(=O)COc1cccc(Nc2ncc(F)c(Nc3ccc4c(c3)C(=O)CCC4)n2)c1` [Compound R926947, 5-Fluoro-N4-(1,2,3,4-tetrahydro-1-oxonaphthalen-7-yl)-N2-[3-[(N-methylamino)carbonylmethyleneoxy]phenyl]-2,4-pyrimidinediamine], the IC50 is over 10 µM.
Regarding `CNC(=O)Cn1ncc2cc(Nc3ncc(F)c(Nc4ccc(OC(C)C)cc4)n3)ccc21` [Compound R935239, 5-Fluoro-N4-(4-isopropoxyphenyl)-N2-[1-(N-methylaminocarbonyl)methyl-indazoline-5-yl]-2,4-pyrimidinediamine], the IC50 is over 10 µM.
